“And” between values parts separate entries of the source, which are not always exact repeats. Identical values can stand only once. The source made the active and inactive calls.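 Rule for the calls: active = compounds giving half or more protection of infected cells from virus-caused growth loss, again on retest; inactive = the rest.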 Where a SMILES comes first, the peptide text is derived from it.
Test system: CEM cells HIV-1 protection, formazan growth assay
Assay: NCI AIDS Antiviral Assay
Settings: for IC50: measured here: growth of uninfected CEM cells
How it was run: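 Protection of CEM cells against HIV-1 was scored from cell growth (soluble formazan) across five concentrations, with parallel uninfected cells. Lack of protection may reflect toxicity.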

Structure (SMILES) | outcome | EC50 [µM] | IC50
COc1cc(N=Nc2cc(S(=O)(=O)O)cc3cc(S(=O)(=O)O)cc(O)c23)c(C)cc1N=Nc1c(S(=O)(=O)O)cc2cc(Nc3ccccc3)ccc2c1O | inactive | – | –
CC(C)Oc1c(-c2c(OC(C)C)c(=O)c2=O)c(=O)c1=O | – | > 200 | > 200 µM
Nc1nc(Cl)cc(NCC2(CO)CCCCC2)n1 | – | > 200 | 105 µM
COc1cc(C)cc(C(=O)OCc2ccccc2)c1C1=C(Cl)C(=O)C(Cl)=CC1=O | – | > 52.5 | 8.51 µM
COc1ccc(N2C(=O)c3c(c4[nH]c5ccccc5c4c4ccc(C(C)(C)C)cc34)C2=O)cc1 | – | > 11.5 | > 11.5 µM
CS(=O)(=O)c1nc2ccc(N3C(=O)c4ccccc4C3=O)cc2s1 | inactive | – | –
c1ccc2c(c1)CN1CCCC1CN2 (stereo unspecified) | – | > 200 | > 200 µM
S=c1nc2[nH]c3ccccc3c2n[nH]1 | – | > 200 | > 200 µM
Cc1cc(Cl)cc2c1NC(=O)C2(O)CC(=O)c1ccc(F)cc1 (stereo unspecified) | – | > 15.5 | > 15.5 µM
COC(=O)CC1(C(=O)OC)Nc2cc(Cl)c(Cl)cc2S(=O)(=O)N1O (stereo unspecified) | – | 69.2 | 91.2 µM
O=c1[nH]c(=O)c2ncn(-c3ccc([N+](=O)[O-])cn3)c2[nH]1 | inactive | – | –
CN(C(=O)C12C3(C(=O)O)C4C5(C(=O)O)C3C1(C(=O)O)C5C42C(=O)O)C(C)(C)C (stereo unspecified) | – | > 200 | > 200 µM
CCCCOc1cc(C[S+]2CCCC2)c(OC)cc1C[S+]1CCCC1 | – | > 145 | 14.8 µM
COc1ccc(C2=C(N)c3ncccc3C2=O)cc1 | – | > 200 | 132 µM
CCC(C(=O)c1ccccc1)C(CCCC(=O)Nc1c(C)cccc1C)N=O (stereo unspecified) | – | > 661 | 355 µM
C=CCn1cc(C(=O)NC(=O)NCCCCCOC(=O)CCCCCCCCCCC(=O)OCCCCCNC(=O)NC(=O)c2cn(CC=C)c(=O)n(C)c2=O)c(=O)n(C)c1=O | – | > 5.75 | > 5.75 µM
CCCCCCCSc1ccc(/C=C(\C#N)c2ccc(OCCN(CC)CC)cc2)cc1 | – | > 100 | 1.86 µM
O=S(=O)(OI(O)CC(F)(F)F)C(F)(F)F | – | > 200 | > 200 µM
c1ccc2c3[nH]c(c2c1)=Nc1ccc(cc1)-c1nc2ccc(cc2o1)N=c1[nH]c(c2ccccc12)=Nc1ccc2nc(oc2c1)-c1ccc(cc1)N=3 | – | > 200 | 37.2 µM
O=c1[nH]c(=O)n(C2CC(O)C(CO)O2)cc1C#Cc1ccc(F)cc1 (stereo unspecified) | – | > 724 | > 724 µM
CCOP(=O)(OCC)/C(C#N)=C/c1cccc(F)c1 | – | > 331 | > 331 µM
NC(CSC[C@H](N)C(=O)O)C(=O)O (stereo partly specified) | inactive | – | –
CN(C)c1ccc(N=Nc2cccc3ncccc23)cc1 | – | > 200 | 72.4 µM
[Cu+2].[O-]/N=C/c1ccc(O)c(O)c1[O-].[O-]/N=C/c1ccc(O)c(O)c1[O-] | inactive | – | –
Nc1nc(Cl)c2ncn(C3C=CC(O)CC3)c2n1 (stereo unspecified) | – | > 933 | 52.5 µM
CN(C)C=Nc1ccn(CCO)c(=O)n1 | – | > 1200 | > 1200 µM
COC(=O)CC[C@@H](C)C1CCC2[C@@H]3CC[C@@H]4CC(COS(=O)(=O)c5ccc(C)cc5)CC[C@]4(C)C3CC[C@@]21C (stereo partly specified) | – | > 8.32 | > 8.32 µM

Structure (SMILES) | outcome | EC50 [µM] | IC50
CCCCCCCCCCCCCCCCCCN1CN(CO)C(=O)N(CO)C1 | – | > 200 | 166 µM
COc1ccc(-c2nnc3cc(C)n4nnnc4n23)cc1OC | – | > 200 | > 200 µM
CC1(Br)CC2OC3(Br)C=CC(C)(O)C2(CC1=O)C3(C)C (stereo unspecified) | inactive | – | –
CC(=O)O[C@@H]1C2CCC3C(CC[C@@]4(C)C3CC[C@@H]4C(C)N(C)C)[C@@]2(C)C[C@H](O)[C@@H]1NC(=O)c1ccccc1 (stereo partly specified) | – | > 1.38 | > 1.38 µM
CCCCCCCCCCCCC1=C(OC)C(=O)c2cccnc2C1=O | inactive | – | –
O=C(OC1Cc2c(O)cc(O)cc2OC1c1ccc(O)c(O)c1)c1cc(O)c(O)c(O)c1 (stereo unspecified) | – | > 56.2 | 49 µM
O=C1CN(c2ccccc2)C(=O)C1C(=O)Nc1ccc(Cl)c(Cl)c1 (stereo unspecified) | – | > 3.98 | 3.89 µM
COC(=O)C(=O)C(C(=O)C(=O)Nc1cccc(OC)c1)c1nc2ccc(Cl)cc2[nH]c1=O (stereo unspecified) | – | > 204 | 191 µM
CN1C(=O)C(CCO)(C(C)(C)C)c2ccccc21 (stereo unspecified) | – | > 200 | > 200 µM
c1ccc(CSP234N5CCN2CCN3CCN4CC5)c(CSP234N5CCN2CCN3CCN4CC5)c1 | – | > 100 | 39.8 µM
Cc1c(C2(c3cc(C(C)C)c(O)c(CN(CC(=O)O)CC(=O)O)c3C)OS(=O)(=O)c3ccccc32)cc(C(C)C)c(O)c1CN(CC(=O)O)CC(=O)O | – | > 100 | > 100 µM
C/C=C/CC(C)C(OS(=O)(=O)O)C1C(=O)NC(CC)C(=O)N(C)CC(=O)N(C)C(CC(C)C)C(=O)NC(C(C)C)C(=O)N(C)C(CC(C)C)C(=O)NC(C)C(=O)NC(C)C(=O)N(C)C(CC(C)C)C(=O)N(C)C(CC(C)C)C(=O)N(C)C(C(C)C)C(=O)N1C (stereo unspecified) | – | 0.661 | 6.61 µM
Brc1cscc1Cc1cscc1Br | – | > 200 | 74.1 µM
Cc1cc(N(CCC#N)CCC#N)ccc1/C=C(\NC(=O)/C=C/c1ccccc1)NC(=O)Nc1ccc(Cl)cc1 | inactive | – | –
O=c1c2ccccc2oc2cc3c(c(O)c12)CCCC3 | – | > 200 | > 200 µM
CC(=Nc1ccncc1)C(C)=Nc1ccncc1 | – | 20.9 | 36.3 µM
O=C1[C@@H]2C(c3ccccc3Br)=NO[C@@H]2C(=O)N1c1ccc(Cc2ccc(N3C(=O)[C@H]4C(c5ccccc5Br)=NO[C@H]4C3=O)cc2)cc1 | – | > 9.55 | > 9.55 µM
NC1=NS(=O)(=O)Nc2nn(-c3ccccc3)nc21 | – | > 339 | > 339 µM
COC(=O)C1(C(=O)OC)CC2c3c(c4ccccc4n3C)CC(C1=O)N2Cc1ccccc1 (stereo unspecified) | inactive | – | –
Cc1c(N)nc(C(CC(N)=O)NCC(N)C(N)=O)nc1C(=O)NC(C(=O)NC(C)C(O)C(C)C(=O)NC(C(=O)NCCc1nc(-c2nc(C(=O)NCCCNCCCCN)cs2)cs1)C(C)O)C(OC1OC(CO)C(O)C(O)C1OC1OC(CO)C(O)C(OC(N)=O)C1O)c1cnc[nH]1 (stereo unspecified) | inactive | – | –
O=C(Cn1c(=O)cc(Nc2ccccc2)c2ccccc21)Nc1ccccc1 | – | > 200 | 89.1 µM
CCOC(=O)NCC(OS(C)(=O)=O)C(CNC(=O)OCC)OS(C)(=O)=O (stereo unspecified) | – | > 120 | > 120 µM
CN(C)CCSc1ccc(-c2ccc(-c3ccc(SCCN(C)C)cc3)nn2)cc1 | – | 6.92 | 8.13 µM
COc1cc(/C=C/C(=O)OCCc2ccccc2)ccc1O | – | > 8.32 | 5.13 µM
CCSc1cccc(C(=O)O)c1 | – | > 513 | > 513 µM
CC(=O)OCC1OC(n2c(S)c(C#N)c(-c3ccccc3)c(C#N)c2=O)C(OC(C)=O)C(OC(C)=O)C1OC(C)=O (stereo unspecified) | – | > 200 | > 200 µM and 21.9 µM
CC(=O)Oc1c(C)c(-c2ccccc2)c(C)c(-c2ccccc2)c1C(=S)c1ccccc1 | inactive | – | –

Structure (SMILES) | outcome | EC50 [µM] | IC50
CC(=O)Nc1cc2c(cc1O)CC[C@@H]1[C@@H]2CC[C@]2(C)[C@@H](O)CC[C@@H]12 | – | > 200 | 20.9 µM
C=C1C(=O)O[C@H]2[C@H]3O[C@@H](C[C@@H]12)[C@](C)(O)CC[C@@H]1O[C@@]1(C)CCC[C@H]3C | – | > 200 | 8.13 µM
COc1cc2c(oc(=O)c3c4occc4cc(OC)c23)c2cccc(O)c12 | – | > 1.45 | > 1.45 µM
Cc1nc(C(N)=S)sc1C(=O)/C=C/c1cccc(O)c1 | – | > 85.1 | > 85.1 µM
COC(=O)[C@H](Cc1ccccc1)NP(=O)(O)OCC1OC(n2cc(C)c(=O)[nH]c2=O)CC1N=[N+]=[N-] (stereo partly specified) | – | 0.0251 | 10 µM
CC(C)(NC(=O)C(C)(C)NC(=O)OCc1ccccc1)C(=O)O (HELM PEPTIDE1{[O=C(OCc1ccccc1)[*:2]].[Aib].[Aib]}$$$$V2.0) | – | > 200 | > 200 µM
ClC/C=C\C[N+]12CN3CN(CN(C3)C1)C2 | – | > 200 | 24 µM
CCOC(=O)C(=O)Nc1c(C)cccc1C(C)C | – | > 1000 | > 1000 µM
CC12CCC(C(Nc3cc(C(F)(F)F)cc(C(F)(F)F)c3)C1=O)C2(C)C (stereo unspecified) | – | > 200 | > 200 µM
O/N=C/C1C(OCc2ccccc2)C(OCc2ccccc2)C(OCc2ccccc2)CN1Cc1ccccc1 (stereo unspecified) | inactive | – | –
CC1=C2CCCC2C/C(=N/Nc2ccc([N+](=O)[O-])cc2[N+](=O)[O-])CC1 (stereo unspecified) | inactive | – | –
O=C1/C(=C\c2cccc(Oc3ccccc3)c2)SC(c2ccccc2)N1c1ccccc1Cl (stereo unspecified) | – | > 20 | –
CCOC(=O)/C(=C\c1ccoc1)P(=O)(OCC)OCC | – | > 832 | 30.9 µM
Cn1cc(C(N)=O)ccc1=N | – | > 200 | > 200 µM
C[C@H]1CC[P+](C)(c2ccccc2)C1 (stereo partly specified) | – | > 912 | > 912 µM
COc1ccc(C2c3c(-c4ccccc4)nn(-c4ccccc4)c3Oc3ncn4nc(CC#N)nc4c32)cc1OC (stereo unspecified) | – | > 200 | > 200 µM
C/C(O)=C(\N=O)C(=O)NCc1ccccc1 | – | > 1120 | > 1120 µM
COC(=O)C(CCSC)NC(=O)Cc1ccc(C(=O)c2ccccc2)cc1 (stereo unspecified) | – | > 200 | 34.7 µM
CC1/C=C/C=C/CC/C=C/C=C/C=C/C=C/C(OC2OC(C)C(O)C(N)C2O)CC2OC(CC(O)C(O)CCC(O)CC(O)CC(O)CC(=O)OC(C)C(C)C1O)CC(O)C2C(=O)O (stereo unspecified) | – | > 50.1 | 3.31 µM
N#C/C(=C\c1ccc(F)cc1)C(=O)O | – | > 263 | > 263 µM
Cc1ccc(NC(=O)C(=O)CC(=O)c2ccccc2)cc1C | – | > 4.9 | > 4.9 µM
C=C(C)[C@@]1(O)CCC[C@H]1NC(=O)OC(C)(C)C | – | > 200 | > 200 µM
CCOC(=O)C1=C(NNC(=O)Cc2ccccc2)CSC1=Nc1ccccc1 | – | > 18.2 | > 18.2 µM
COc1ccc(/C=C2\C(=O)N(NC(C)=O)c3ccccc32)cc1 | – | > 309 | 52.5 µM
CCNC(=O)CCN(C(=O)O)S(=O)(=O)c1ccc(NC(=O)c2ccccc2)cc1 | – | > 603 | > 603 µM
COC(=O)c1cc(C(=CCC[C@H]2CC[C@@]3(C)C(CCC4C3CC[C@@]3(C)C4CC[C@@H]3C(C)CCCC(C)C)C2)c2cc(Cl)c(O)c(C(=O)OC)c2)cc(Cl)c1O (stereo partly specified) | – | > 200 | > 200 µM

— PubChem BioAssay AID179 (DTP/NCI, 2004)
